Results taken from patent US10052320B2, “Substituted quinoxalines as FGFR kinase inhibitors” (ASTEX THERAPEUTICS LIMITED, priority 2011, dated 2018).
Read-outs that look alike come from different tables or passages of the source.

What was measured:
[1] = target: KDR (h) (VEGFR2) (Homo sapiens, UniProt P35968); assay: KDR (VEGFR2) (enzymatic assay), TR-FRET; type: biochemical
Procedure, shortened: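 First, kinase (150 ng/ml), Btn-Flt3 (500 nM), ATP (3 μM) and compound (1% DMSO) react 120 min at RT in pH 7.5 HEPES/6 mM MnCl2. Next, EDTA with Eu-anti-P-Tyr and SA-XL-665 stops it for 60 min. Finally, TR-FRET is read as RFU.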

[2] = system: Ba/F3-FGFR1-transfected cells in the presence of 10 ng/ml murine IL3; assay: Ba/F3-FGFR1 (plus IL3) cellular proliferation counterscreen, Alamar Blue; type: cell-based; details: for IC50: Mus musculus
Procedure, shortened: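 First, compound was dispensed and cells added at 20000/well, or 10000/well in the larger-well version. Next came a 24 h incubation at 37 °C. Finally, resazurin reagent was applied for 4 h before fluorescence measurement at 540/590 nm.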

[3] = target: Ba/F3-KDR-transfected cells (Homo sapiens, UniProt P35968); assay: Ba/F3-KDR (minus IL3) cellular proliferation assay, Alamar Blue; type: cell-based
Sequence of Ba/F3-KDR-transfected cells (P35968 whole entry, change not shown): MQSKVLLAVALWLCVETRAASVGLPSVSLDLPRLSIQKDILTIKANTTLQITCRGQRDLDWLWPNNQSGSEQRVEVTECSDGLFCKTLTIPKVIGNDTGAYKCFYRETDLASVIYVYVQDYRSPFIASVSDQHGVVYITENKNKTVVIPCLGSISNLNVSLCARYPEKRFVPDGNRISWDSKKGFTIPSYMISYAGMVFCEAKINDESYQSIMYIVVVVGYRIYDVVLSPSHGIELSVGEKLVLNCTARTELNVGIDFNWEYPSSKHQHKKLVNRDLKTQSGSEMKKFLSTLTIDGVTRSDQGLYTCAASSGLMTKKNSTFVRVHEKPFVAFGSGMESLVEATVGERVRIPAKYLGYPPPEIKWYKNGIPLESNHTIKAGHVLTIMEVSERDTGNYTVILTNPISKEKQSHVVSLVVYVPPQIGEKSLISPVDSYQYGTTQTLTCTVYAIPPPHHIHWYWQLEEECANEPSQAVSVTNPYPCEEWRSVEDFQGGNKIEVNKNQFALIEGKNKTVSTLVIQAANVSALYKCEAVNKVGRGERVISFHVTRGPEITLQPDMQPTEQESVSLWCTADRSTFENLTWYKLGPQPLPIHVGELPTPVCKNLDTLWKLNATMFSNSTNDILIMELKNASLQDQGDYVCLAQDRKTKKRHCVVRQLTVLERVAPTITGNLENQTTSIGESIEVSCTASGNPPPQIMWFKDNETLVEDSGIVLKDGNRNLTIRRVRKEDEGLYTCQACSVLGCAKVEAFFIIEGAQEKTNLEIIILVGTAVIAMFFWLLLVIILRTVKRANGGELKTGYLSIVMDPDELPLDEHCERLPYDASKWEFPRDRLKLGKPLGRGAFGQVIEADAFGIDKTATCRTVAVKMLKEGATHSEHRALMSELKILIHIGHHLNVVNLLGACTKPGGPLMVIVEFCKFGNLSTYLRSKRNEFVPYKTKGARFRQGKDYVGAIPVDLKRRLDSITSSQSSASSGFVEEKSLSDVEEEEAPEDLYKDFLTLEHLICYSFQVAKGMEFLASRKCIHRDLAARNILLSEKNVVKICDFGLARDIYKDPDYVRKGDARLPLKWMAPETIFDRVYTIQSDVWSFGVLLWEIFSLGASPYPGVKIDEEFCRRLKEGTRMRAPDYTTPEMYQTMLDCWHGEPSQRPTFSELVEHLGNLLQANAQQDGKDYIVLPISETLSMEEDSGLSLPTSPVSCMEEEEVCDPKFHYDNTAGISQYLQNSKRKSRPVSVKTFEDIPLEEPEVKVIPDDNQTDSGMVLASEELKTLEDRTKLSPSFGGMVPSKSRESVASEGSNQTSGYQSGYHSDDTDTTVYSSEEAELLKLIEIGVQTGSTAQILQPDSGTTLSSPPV
Procedure, shortened: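 Proliferation of KDR-transfected Ba/F3 cells is measured by Alamar Blue fluorescence after 24 h with compound plus 4 h resazurin at 37 °C. For the counterscreen, 10 ng/ml murine IL3 is present.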

[4] = target: FGFR2 (h) (Homo sapiens, UniProt P21802); assay: FGFR2 (enzymatic assay), TR-FRET; type: biochemical; details: read-out: FGFR 2 pIC50 (converted)
Sequence of FGFR2 (h) (P21802 22-821): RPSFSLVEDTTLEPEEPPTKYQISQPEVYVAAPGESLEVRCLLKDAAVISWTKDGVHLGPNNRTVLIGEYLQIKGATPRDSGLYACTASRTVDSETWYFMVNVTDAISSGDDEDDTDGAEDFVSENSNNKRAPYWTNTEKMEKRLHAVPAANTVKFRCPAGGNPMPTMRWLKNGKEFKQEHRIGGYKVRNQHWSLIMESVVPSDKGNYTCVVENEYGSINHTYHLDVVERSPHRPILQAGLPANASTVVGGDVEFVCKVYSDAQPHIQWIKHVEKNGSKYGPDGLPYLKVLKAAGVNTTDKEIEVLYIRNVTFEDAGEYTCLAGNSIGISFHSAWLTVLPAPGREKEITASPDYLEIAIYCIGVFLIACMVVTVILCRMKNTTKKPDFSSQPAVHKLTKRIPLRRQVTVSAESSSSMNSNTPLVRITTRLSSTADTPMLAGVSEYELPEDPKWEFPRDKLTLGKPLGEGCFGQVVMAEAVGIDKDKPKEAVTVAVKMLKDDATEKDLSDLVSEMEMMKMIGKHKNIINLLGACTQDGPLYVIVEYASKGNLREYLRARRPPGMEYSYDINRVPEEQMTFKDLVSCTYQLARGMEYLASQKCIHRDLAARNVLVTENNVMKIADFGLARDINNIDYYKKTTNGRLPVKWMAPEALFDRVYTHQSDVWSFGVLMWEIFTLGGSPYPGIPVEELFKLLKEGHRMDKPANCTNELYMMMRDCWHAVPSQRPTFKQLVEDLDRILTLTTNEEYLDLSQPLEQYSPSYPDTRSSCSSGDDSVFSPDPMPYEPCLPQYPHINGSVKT
Method: In a final reaction volume of 30 μL, FGFR2 (h) (150 ng/ml) was incubated with 50 mM HEPES pH 7.5, 6 mM MnCl2, 1 mM DTT, 0.1 mM Na3VO4, 0.01% Triton-X-100, 500 nM Btn-Flt3 and 0.4 μM ATP in the presence of compound (1% DMSO final). […] Time-Resolved Fluorescence Resonance Energy Transfer (TR-FRET) signal (ex340 nm. Em 620 nm, em 655 nm) was measured afterwards and results are expressed in (Relative Fluorescence Units).

[5] = target: FGFR3 (h) (Homo sapiens, UniProt P22607); assay: FGFR3 (enzymatic assay), TR-FRET; type: biochemical; details: read-out: FGFR 3 pIC50 (converted)
Sequence of FGFR3 (h) (P22607 23-806): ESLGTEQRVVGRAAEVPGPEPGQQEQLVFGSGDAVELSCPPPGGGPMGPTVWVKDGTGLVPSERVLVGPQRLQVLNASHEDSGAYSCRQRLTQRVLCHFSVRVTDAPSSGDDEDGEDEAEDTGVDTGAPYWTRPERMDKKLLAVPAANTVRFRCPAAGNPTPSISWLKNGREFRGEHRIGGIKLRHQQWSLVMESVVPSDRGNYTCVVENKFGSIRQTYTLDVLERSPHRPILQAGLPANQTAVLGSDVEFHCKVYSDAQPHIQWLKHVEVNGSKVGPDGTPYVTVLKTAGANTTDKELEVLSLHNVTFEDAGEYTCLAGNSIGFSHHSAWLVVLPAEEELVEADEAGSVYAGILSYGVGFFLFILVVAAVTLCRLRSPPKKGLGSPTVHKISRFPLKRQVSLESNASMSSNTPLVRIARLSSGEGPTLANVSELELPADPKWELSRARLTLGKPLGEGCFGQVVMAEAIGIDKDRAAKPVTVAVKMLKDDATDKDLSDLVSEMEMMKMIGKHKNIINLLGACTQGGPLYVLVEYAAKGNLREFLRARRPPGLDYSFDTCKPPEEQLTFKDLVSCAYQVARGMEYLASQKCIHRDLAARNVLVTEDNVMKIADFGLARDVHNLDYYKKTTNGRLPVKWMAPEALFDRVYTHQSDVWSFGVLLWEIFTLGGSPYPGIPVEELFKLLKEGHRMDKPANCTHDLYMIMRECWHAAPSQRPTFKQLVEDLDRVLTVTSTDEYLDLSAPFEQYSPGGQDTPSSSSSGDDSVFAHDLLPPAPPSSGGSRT
Method: (§1) In a final reaction volume of 30 μL, FGFR3 (h) (40 ng/ml) was incubated with 50 mM HEPES pH 7.5, 6 mM MnCl2, 1 mM DTT, 0.1 mM Na3VO4, 0.01% Triton-X-100, 500 nM Btn-Flt3 and 25 μM ATP in the presence of compound (1% DMSO final). […] Time-Resolved Fluorescence Resonance Energy Transfer (TR-FRET) signal (ex340 nm. Em 620 nm, em 655 nm) was measured afterwards and results are expressed in RFU (Relative Fluorescence Units).

[6] = target: FGFR4 (h) (Homo sapiens, UniProt P22455); assay: FGFR4 (enzymatic assay), TR-FRET; type: biochemical; details: read-out: FGFR 4 pIC50 (converted)
Sequence of FGFR4 (h) (P22455 22-802): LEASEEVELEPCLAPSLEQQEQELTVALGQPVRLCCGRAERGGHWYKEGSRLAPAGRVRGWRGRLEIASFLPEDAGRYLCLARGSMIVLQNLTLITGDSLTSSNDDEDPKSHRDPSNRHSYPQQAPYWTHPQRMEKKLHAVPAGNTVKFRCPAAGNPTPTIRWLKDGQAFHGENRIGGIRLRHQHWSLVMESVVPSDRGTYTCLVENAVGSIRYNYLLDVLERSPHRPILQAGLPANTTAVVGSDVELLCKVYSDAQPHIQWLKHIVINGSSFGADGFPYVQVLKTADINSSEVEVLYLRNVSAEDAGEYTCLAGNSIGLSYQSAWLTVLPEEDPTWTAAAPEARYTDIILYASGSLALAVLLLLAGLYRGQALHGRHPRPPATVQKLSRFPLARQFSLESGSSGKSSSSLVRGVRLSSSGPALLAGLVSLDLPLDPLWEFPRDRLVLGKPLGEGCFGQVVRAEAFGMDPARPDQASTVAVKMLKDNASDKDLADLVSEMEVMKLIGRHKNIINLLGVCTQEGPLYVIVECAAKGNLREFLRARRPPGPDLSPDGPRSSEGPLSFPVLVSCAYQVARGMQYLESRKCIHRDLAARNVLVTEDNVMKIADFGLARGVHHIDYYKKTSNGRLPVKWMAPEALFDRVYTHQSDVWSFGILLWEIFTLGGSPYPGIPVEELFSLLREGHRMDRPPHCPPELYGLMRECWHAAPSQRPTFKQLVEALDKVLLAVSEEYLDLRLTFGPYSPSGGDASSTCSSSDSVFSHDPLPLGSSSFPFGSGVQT
Method: as §1, with “FGFR4” for “FGFR3”, “(60” for “(40”, “5” for “25”

[7] = plus IL3, 384 well, read-out: BAF3-FGFR 1 (PLUS IL3) 384 well pIC50 (converted)
[8] = plus IL3, 96 well, read-out: BAF3-FGFR 1 (PLUS IL3) 96 well pIC50 (converted)

Sequence of KDR (h) (VEGFR2) (P35968 20-1356): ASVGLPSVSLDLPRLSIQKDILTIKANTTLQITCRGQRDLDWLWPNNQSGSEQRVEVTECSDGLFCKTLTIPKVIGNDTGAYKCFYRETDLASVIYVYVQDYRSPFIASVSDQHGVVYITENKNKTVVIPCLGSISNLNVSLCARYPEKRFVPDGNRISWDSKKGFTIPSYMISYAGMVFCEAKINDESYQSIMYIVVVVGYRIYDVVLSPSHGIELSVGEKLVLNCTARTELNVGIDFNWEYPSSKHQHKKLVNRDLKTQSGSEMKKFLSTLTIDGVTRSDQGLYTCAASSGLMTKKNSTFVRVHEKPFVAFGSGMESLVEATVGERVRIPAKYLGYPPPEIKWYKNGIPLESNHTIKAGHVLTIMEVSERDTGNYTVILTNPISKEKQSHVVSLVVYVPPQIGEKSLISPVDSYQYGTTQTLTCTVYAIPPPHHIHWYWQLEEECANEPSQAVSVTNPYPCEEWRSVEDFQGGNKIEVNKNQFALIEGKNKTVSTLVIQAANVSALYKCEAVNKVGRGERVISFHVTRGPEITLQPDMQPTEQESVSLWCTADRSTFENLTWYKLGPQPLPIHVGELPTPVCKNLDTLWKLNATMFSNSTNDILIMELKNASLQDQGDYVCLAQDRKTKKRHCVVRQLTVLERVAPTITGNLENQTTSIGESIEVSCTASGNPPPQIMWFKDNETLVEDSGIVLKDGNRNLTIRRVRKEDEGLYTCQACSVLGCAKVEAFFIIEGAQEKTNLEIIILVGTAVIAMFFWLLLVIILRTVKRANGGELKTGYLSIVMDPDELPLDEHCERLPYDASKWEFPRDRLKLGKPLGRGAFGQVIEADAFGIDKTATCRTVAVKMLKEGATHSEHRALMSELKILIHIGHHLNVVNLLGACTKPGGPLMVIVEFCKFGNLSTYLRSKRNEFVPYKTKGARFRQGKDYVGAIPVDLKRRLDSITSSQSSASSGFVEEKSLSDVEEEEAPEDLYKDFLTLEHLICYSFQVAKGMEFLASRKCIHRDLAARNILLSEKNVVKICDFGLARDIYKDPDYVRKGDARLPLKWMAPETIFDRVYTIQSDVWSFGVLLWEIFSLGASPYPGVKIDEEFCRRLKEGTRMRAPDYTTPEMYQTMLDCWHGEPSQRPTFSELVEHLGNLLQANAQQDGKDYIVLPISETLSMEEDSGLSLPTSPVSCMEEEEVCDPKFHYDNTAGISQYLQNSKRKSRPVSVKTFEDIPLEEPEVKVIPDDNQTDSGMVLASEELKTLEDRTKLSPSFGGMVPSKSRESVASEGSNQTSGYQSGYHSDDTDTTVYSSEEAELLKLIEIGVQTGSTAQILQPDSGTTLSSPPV

Row | Structure (SMILES) | IC50 [1] | IC50 [2, 7] | BAF3-KDR (MIN IL3) 384 well pIC50 ([3]; minus IL3) | BAF3-FGFR 1 (PLUS IL3) 384 well pIC50 ([2]; plus IL3, 384 well) | IC50 [2, 8] | BAF3-KDR (MIN IL3) 384 well pIC50 ([3]; minus IL3, 384 well) | BAF3-KDR (MIN IL3) 96 well pIC50 ([3]; minus IL3) | IC50 [4] | IC50 [5] | IC50 [6]
1 | COc1cc(OC)cc(N(CC(OC(C)=O)C(F)(F)F)c2ccc3ncc(-c4cccnc4)nc3c2)c1 (single isomer, unassigned) [Compound 45] | > 1000 nM | > 10000 nM | <5 | – | – | – | – | – | – | –
2 | COc1cc(OC)cc(N(CC(O)C(F)(F)F)c2ccc3ncc(-c4cccnc4)nc3c2)c1 (single isomer, unassigned) [Compound 53] | 363 nM | > 10000 nM | <5 | – | – | – | – | – | – | –
3 | COc1cc(OC)cc(N(CC(O)C(F)(F)F)c2ccc3ncc(-c4cccnc4)nc3c2)c1 (single isomer, unassigned) [Compound 54] | 794 nM | – | <5 | <5 | – | – | – | – | – | –
4 | COc1cc(OC)cc(N(CC(OC(C)=O)C(F)(F)F)c2ccc3ncc(-c4cccnc4)nc3c2)c1 (single isomer, unassigned) [Compound 75] | – | – | <5 | <5 | – | – | – | – | – | –
5 | COc1cc(OC)cc(N(CC2CC2)c2ccc3ncc(-c4ccnn4C)nc3c2)c1 [Compound 18] | > 10000 nM | > 10000 nM | <5 | – | > 10000 nM | – | – | – | – | –
6 | COc1cc(OC)cc(N(CC2CC2)c2ccc3ncc(-c4ccc5c(ccn5C)c4)nc3c2)c1 [Compound 20] | > 10000 nM | > 10000 nM | – | – | – | <5 | – | – | – | –
7 | COc1cc(OC)cc(N(CC2CC2)c2ccc3ncc(-c4cn(C)cn4)nc3c2)c1 [Compound 21] | 708 nM | > 10000 nM | <5 | – | > 10000 nM | – | <5 | – | – | –
8 | COc1cc(OC)cc(N(CC2CC2)c2ccc3ncc(-c4cc[nH]c4)nc3c2)c1 [Compound 36] | 676 nM | > 10000 nM | <5 | – | > 10000 nM | – | <5 | – | – | –
9 | COc1cc(OC)cc(N(CC2CC2)c2ccc3ncc(-c4ccn(CCO)c4)nc3c2)c1 [Compound 56] | 151 nM | > 10000 nM | ~5 | – | > 10000 nM | – | 5.29 | – | – | –
10 | COc1cc(OC)cc(N(CC2CC2)c2ccc3ncc(Nc4cnn(C)c4)nc3c2)c1 [Compound 61] | > 1000 nM | > 10000 nM | <5 | – | 6920 nM | – | – | – | – | –
11 | COc1cc(OC)cc(N(CC2CC2)c2ccc3ncc(-c4cnn(C)n4)nc3c2)c1 [Compound 70] | > 1000 nM | > 10000 nM | <5 | – | > 10000 nM | – | <5 | – | – | –
12 | COc1cc(OC)cc(N(CC2CC2)c2ccc3ncc(-c4cn(C)nn4)nc3c2)c1 [Compound 71] | 813 nM | > 10000 nM | <5 | – | > 10000 nM | – | <5 | – | – | –
13 | COc1cc(OC)cc(N(CC2CC2)c2ccc3ncc(-c4ccn(C)c4)nc3c2)c1 [Compound 73] | 295 nM | > 10000 nM | 5.07 | – | > 10000 nM | – | <5 | – | – | –
14 | CNCCN(c1cc(OC)cc(OC)c1)c1ccc2ncc(-c3ccc(NC(=O)OC(C)(C)C)nc3)nc2c1 [Compound 81] | 209 nM | – | 5.62 | – | – | – | – | 5.5 nM | 10 nM | 63.1 nM
15 | COc1cc(OC)cc(N(CC2CC2)c2ccc3ncc(-c4nnn(C)n4)nc3c2)c1 [Compound 82] | > 1000 nM | – | <5 | – | – | – | <5 | 229 nM | 148 nM | > 1000 nM
16 | COc1cc(OC)cc(N(CC2CC2)c2ccc3ncc(C(=O)NCCN4CCOCC4)nc3c2)c1 [Compound 96] | > 1000 nM | – | <5 | – | – | – | – | ~912 nM | 550 nM | > 1000 nM
17 | COc1cc(OC)cc(N(CC2CC2)c2ccc3ncc(-c4nccs4)nc3c2)c1 [Compound 97] | > 10000 nM | – | <5 | – | – | – | – | 2000 nM | 676 nM | 1050 nM
18 | COc1cc(OC)cc(N(CC2CC2)c2ccc3ncc(Nc4nccs4)nc3c2)c1 [Compound 98] | > 1000 nM | – | <5 | – | – | – | – | 676 nM | 191 nM | > 1000 nM
19 | COc1cc(OC)cc(N(CC2CC2)c2ccc3ncc(C(=O)NCc4ccc(F)cc4)nc3c2)c1 [Compound 101] | > 1000 nM | – | <5 | – | – | – | – | > 1000 nM | > 1000 nM | > 1000 nM
20 | COc1cc(OC)cc(N(CC2CC2)c2ccc3ncc(Nc4nncs4)nc3c2)c1 [Compound 102] | > 1000 nM | – | <5 | – | – | – | – | > 1000 nM | > 1000 nM | > 1000 nM
21 | COc1cc(OC)cc(N(CC2CC2)c2ccc3ncc(-c4cccn4C)nc3c2)c1 [Compound 103] | > 1000 nM | – | <5 | – | – | – | – | > 1000 nM | ~1000 nM | > 1000 nM
22 | COc1cc(OC)cc(N(CC2CC2)c2ccc3ncc(-n4cnc(CO)c4)nc3c2)c1 [Compound 105] | 741 nM | – | <5 | – | – | – | – | 40.7 nM | 13.8 nM | 132 nM
23 | COc1cc(OC)cc(N(CCO)c2ccc3ncc(-c4ccc(N)nc4)nc3c2)c1 [Compound 106] | 178 nM | – | 5.335 | – | – | – | – | 5.82 nM | 3.02 nM | 19.5 nM
24 | CNC(=O)c1cc(-c2cnc3ccc(N(CCN4CCCC4CO)c4cc(OC)cc(OC)c4)cc3n2)ccn1 (centres unmarked) [Compound 109] | 200 nM | – | – | – | – | – | – | 6.31 nM | 11.7 nM | 251 nM
25 | CNC(=O)c1cc(-c2cnc3ccc(N(CCNCC(F)(F)F)c4cc(OC)cc(OC)c4)cc3n2)ccn1 [Compound 113] | > 1000 nM | – | <5 | – | – | – | – | 45.7 nM | 33.9 nM | 170 nM
26 | COc1cc(OC)cc(N(CCCO)c2ccc3ncc(-c4ccc(C)nc4)nc3c2)c1 [Compound 115] | 309 nM | – | 5.06 | – | – | – | – | 13.5 nM | 4.79 nM | 38 nM
27 | COc1cc(OC)cc(N(CCNC(C)C)c2ccc3ncc(-c4ccccc4)nc3c2)c1 [Compound 121] | 49 nM | – | ~5.3 | – | – | – | – | 3.72 nM | 5.89 nM | 7.94 nM
28 | COc1cc(OC)cc(N(CCCO)c2ccc3ncc(-c4ccc(N5CCOCC5)nc4)nc3c2)c1 [Compound 124] | 102 nM | > 10000 nM | 5.11 | – | – | – | – | – | 3.39 nM | 33.1 nM
29 | COc1cc(OC)cc(N(CCCO)c2ccc3ncc(-c4ccc(N(C)C(=O)OC(C)(C)C)nc4)nc3c2)c1 [Compound 125] | > 1000 nM | – | <5 | – | – | – | – | 309 nM | 81.3 nM | 174 nM
30 | COc1cc(OC)cc(N(CCCO)c2ccc3ncc(-c4ccnc(C(=O)NCCCCN)c4)nc3c2)c1 [Compound 126] | 661 nM | – | <5 | – | – | – | – | 33.1 nM | 17.8 nM | 117 nM
